The test deals with T1, Human transferrin (htf) (Homo sapiens, UniProt P02787).
T1 construct: gene TF; commercial protein from Sigma Aldrich
The test can be described thus: intrinsic fluorescence quenching (excitation […] nm), modified Stern-Volmer plot. The format is binding. The following applies: 4 µM htf, 0-6 µM capsaicin; inner filter corrected; double-log.

T1 sequence (P02787 20-698): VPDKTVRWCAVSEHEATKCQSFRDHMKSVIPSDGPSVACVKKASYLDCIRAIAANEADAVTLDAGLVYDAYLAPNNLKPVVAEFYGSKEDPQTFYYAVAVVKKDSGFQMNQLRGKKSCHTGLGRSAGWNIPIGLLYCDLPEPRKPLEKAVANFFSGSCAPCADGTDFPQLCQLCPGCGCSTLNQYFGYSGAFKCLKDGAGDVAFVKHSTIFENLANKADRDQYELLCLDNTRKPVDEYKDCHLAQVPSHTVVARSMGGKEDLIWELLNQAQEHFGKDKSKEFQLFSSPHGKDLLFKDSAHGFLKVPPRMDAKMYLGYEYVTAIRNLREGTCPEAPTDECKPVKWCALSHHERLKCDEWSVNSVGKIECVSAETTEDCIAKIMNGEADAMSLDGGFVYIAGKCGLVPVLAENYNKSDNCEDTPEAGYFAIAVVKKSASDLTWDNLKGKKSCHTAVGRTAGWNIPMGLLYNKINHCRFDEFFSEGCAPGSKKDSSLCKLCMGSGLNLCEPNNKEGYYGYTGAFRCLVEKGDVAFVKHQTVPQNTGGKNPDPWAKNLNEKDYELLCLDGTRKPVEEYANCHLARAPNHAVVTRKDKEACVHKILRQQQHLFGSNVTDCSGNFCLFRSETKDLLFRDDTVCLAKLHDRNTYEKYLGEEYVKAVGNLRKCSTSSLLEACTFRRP

`COc1cc(CNC(=O)CCCC/C=C/C(C)C)ccc1O` [capsaicin, 8-methyl-N-vanillyl-6-nonenamide] gave a K of 3.99e+06 M⁻¹.

Values taken from PMC10943693, “Evaluation of binding mechanism of dietary phytochemical, capsaicin, with human transferrin: targeting neurodegenerative diseases therapeutics” (Frontiers in Pharmacology, 2024).
